From patent publication US20020188122A1, “Novel compounds” (SmithKline Beecham Corporation, priority 1993, published 2002) come the findings set out here.

A word on the melting point: it is the temperature, or range, at which the solid turns liquid.

Each structure is given as a SMILES string.

Data set [1] concerns human PGHS-2 protein expression. Briefly: Prostoglandin endoperoxide synthase-2 (PGHS-2) assay, protein expression in LPS stimulated human monocytes. The class given is cell-based. On the procedure:
The followiong assay describes a method for determining the inhibitory effects of compounds of Formula (I) on human PGHS-2 protein expression in LPS stimulated human monocytes
Human peripheal blood monocytes were isolated from buffy coats by centrifugation through Ficoll and Percoll gradients. Cells were seeded at 2×10^6/well in 24 well plates and allowed to adhere for 1 hour in RPMI supplemented with 1% human AB serum, 20 mM L-glutamine, Penicillin-Streptomycin and 10 mM HEPES. Compounds were added at various concentrations and incubated at 37° C. for 10 minutes. LPS was added at 50 ng/well (to induce enzyme expression) and incubated overnight at 37° C. The supernatant was removed and cells washed once in cold PBS. The cells were lysed in 100 μl of cold lysis buffer(50 mM Tris/HCl pH 7.5, 150 mM NaCl, 1% NP40, 0.5% sodium deoxycholate, 0.1% SDS, 300 ug/ml DNAse, 0.1% TRITON X-100, 1 mM PMSF, 1 mM leupeptin, 1 mM pepstatin). The lysate was centrifuged (10,000× g for 10 min. at 4° C.) to remove debris and the soluble fraction was subjected to SDS PAGE. analysis (12% gel). Protein separated on the gel were transferred onto nitrocellulose membrane by electrophoretic means for 2 hours at 60 volts. The membrane was pretreated for one hour in PBS/0.1% Tween 20 with 5% non-fat dry milk. […]

As to `C[C@@H]1C[C@H]2[C@@H]3CCC4=CC(=O)C=C[C@]4(C)[C@@]3(F)[C@@H](O)C[C@]2(C)[C@@]1(O)C(=O)CO` [Dexamethasone], the “inhibition of LPS induced PGHS-2 protein expression” value in data set [1] (rank order potency similar to that for inhibiting cytokine production) is given as “active”. The molecule `Nc1nccc(-c2c(-c3ccc(F)cc3)ncn2C2CCSCC2)n1` [Example 91, 5-(2-Amino-4-pyrimidinyl)-4-(4-fluorophenyl)-1-(tetrahydro-4-thiopyranyl)imidazole] came in with a melting point of 228 to 230 °C. On the same count and under the same terms, the result for `CNc1nccc(-c2c(-c3ccc(F)cc3)ncn2CCC#N)n1` [Example 93, 5-(2-Methylamino-4-pyrimidinyl)-4-(4-fluorophenyl)-1-(2-cyanoethyl)imidazole] reads 193 to 194 °C. For `CC(Cc1ccc(O)c(O)c1)C(C)Cc1ccc(O)c(O)c1` (stereo not shown) [NDGA], the “inhibition of LPS induced PGHS-2 protein expression” value in data set [1] (up to 10 uM) was “inactive”.
